From article PMC8131106 (eLife, 2021)
Where a chain is given by its changes, count along the chain named. In names and notes the source's numbering stands.

Tests used:
[1] = target: T1, LeuT (Aquifex aeolicus, UniProt O67854, R375D); experiment: X-ray crystal structure, […] A; format: binding; details: Na+ bound, outward-facing occluded
T1 construct: gene snf; pET16b, C-terminal 8xHis tag removed with thrombin, expressed in E. coli C41/C43(DE3), purified in DDM then OG; Cys pairs with spin labels for DEER

[2] = target: T2, LeuT (Aquifex aeolicus, UniProt O67854, R375A); experiment: X-ray crystal structure, […] A; format: binding; details: Na+ bound, outward-facing occluded
T2 construct: gene snf; pET16b, C-terminal 8xHis tag removed with thrombin, expressed in E. coli C41/C43(DE3), purified in DDM then OG; Cys pairs with spin labels for DEER

[3] = target: T3, LeuT (Aquifex aeolicus, UniProt O67854); experiment: X-ray crystal structure, […] A; format: binding; details: Na+ bound, outward-facing occluded
T3 construct: gene snf; pET16b, C-terminal 8xHis tag removed with thrombin, expressed in E. coli C41/C43(DE3), purified in DDM then OG; Cys pairs with spin labels for DEER

[4] = target: T4, LeuT (Aquifex aeolicus, UniProt O67854, H7C/R86C/A309C, form not given); experiment: DEER EPR distance distributions; format: binding; details: […] NaCl, fourfold molar excess of Leu; each spin-label pair in its own construct (pair also printed as […])
T4 construct: gene snf; pET16b, C-terminal 8xHis tag removed with thrombin, expressed in E. coli C41/C43(DE3), purified in DDM then OG; Cys pairs with spin labels for DEER

[5] = target: T5, LeuT (Aquifex aeolicus, UniProt O67854, R375D, form not given); experiment: DEER EPR distance distributions; format: binding; details: […] NaCl, fourfold molar excess of Leu; each spin-label pair in its own construct (pair also printed as […])
T5 construct: gene snf; pET16b, C-terminal 8xHis tag removed with thrombin, expressed in E. coli C41/C43(DE3), purified in DDM then OG; Cys pairs with spin labels for DEER

[6] = target: T6, dDAT (Drosophila melanogaster, UniProt Q7K4Y6); details: […] min, room temperature, labelled compound
T6 construct: gene DAT

[7] = substrate: NCCc1ccc(O)c(O)c1; experiment: cells, lysate or membranes; details: pH […]-7.[…] min, […] DA, labelled compound

T6 sequence (Q7K4Y6 whole entry): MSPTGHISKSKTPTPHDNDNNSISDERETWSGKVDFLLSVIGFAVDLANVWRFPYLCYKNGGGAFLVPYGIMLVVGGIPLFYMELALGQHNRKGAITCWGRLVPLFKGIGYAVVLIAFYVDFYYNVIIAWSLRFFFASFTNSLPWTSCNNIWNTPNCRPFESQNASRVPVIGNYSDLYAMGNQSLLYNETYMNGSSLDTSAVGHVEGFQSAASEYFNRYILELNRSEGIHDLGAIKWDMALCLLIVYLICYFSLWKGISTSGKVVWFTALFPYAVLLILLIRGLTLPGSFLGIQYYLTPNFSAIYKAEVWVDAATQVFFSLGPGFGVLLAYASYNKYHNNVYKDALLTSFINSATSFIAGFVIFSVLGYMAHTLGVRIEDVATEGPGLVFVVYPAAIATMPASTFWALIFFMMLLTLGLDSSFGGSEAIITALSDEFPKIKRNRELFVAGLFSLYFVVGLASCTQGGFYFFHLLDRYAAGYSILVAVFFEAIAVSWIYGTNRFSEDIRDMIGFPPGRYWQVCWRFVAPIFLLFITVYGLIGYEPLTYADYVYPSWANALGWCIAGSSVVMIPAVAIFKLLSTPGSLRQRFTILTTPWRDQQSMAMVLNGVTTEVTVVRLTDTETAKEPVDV

C[C@H](N)C(=O)O [L-Ala]
X-ray crystal structure, 2.6 A [1]: LeuT WT, LeuT R375A, and LeuT R375D solved in the L-Ala and Na^+ bound OO conformation
X-ray crystal structure, 2.1 A [2]: LeuT WT, LeuT R375A, and LeuT R375D solved in the L-Ala and Na^+ bound OO conformation
X-ray crystal structure, 2.1 A [3]: L-Ala, Na1, and Na2 (purple spheres) could be modeled into their respective binding sites

CC(C)C[C@H](N)C(=O)O [Leu]
DEER EPR distance distributions [4]: Leu binding to Na^+-bound LeuT restores the conformational preference to the OO form
DEER EPR distance distributions [5]: Na^+/Leu resets the IC gate to the IO conformation

NCCc1ccc(O)c(O)c1 [dopamine]
[3H]DA uptake, intact fly brains [6]: uptake of [^3H]DA in hDAT WT Drosophila brains was not significantly different from that measured in dDAT

B1: hDAT (Homo sapiens) (protein)
chain: MSKSKCSVGLMSSVVAPAKEPNAVGPKEVELILVKEQNGVQLTSSTLTNPRQSPVEAQDRETWGKKIDFLLSVIGFAVDLANVWRFPYLCYKNGGGAFLVPYLLFMVIAGMPLFYMELALGQFNREGAAGVWKICPILKGVGFTVILISLYVGFFYNVIIAWALHYLFSSFTTELPWIHCNNSWNSPNCSDAHPGDSSGDSSGLNDTFGTTPAAEYFERGVLHLHQSHGIDDLGPPRWQLTACLVLVIVLLYFSLWKGVKTSGKVVWITATMPYVVLTALLLRGVTLPGAIDGIRAYLSVDFYRLCEASVWIDAATQVCFSLGVGFGVLIAFSSYNKFTNNCYRDAIVTTSINSLTSFSSGFVVFSFLGYMAQKHSVPIGDVAKDGPGLIFIIYPEAIATLPLSSAWAVVFFIMLLTLGIDSAMGGMESVITGLIDEFQLLHRHRELFTLFIVLATFLLSLFCVTNGGIYVFTLLDHFAAGTSILFGVLIEAIGVAWFYGVGQFSDDIQQMTGQRPSLYWRLCWKLVSPCFLLFVVVVSIVTFRPPHYGAYIFPDWANALGWVIATSSMAMVPIYAAYKFCSLPGSFREKLAYAIAPEKDRELVDRGEVRQFTLRHWLKV
Km [7]: 5.7 ± 1.4 µM

B2: hDAT (Homo sapiens; R445C) (protein)
chain: B1 chain with R445C
Km [7]: 0.10 ± 0.07 µM
